The experiment deals with T1, RORγ-LBD (Homo sapiens, UniProt P51449).
T1 construct: made in house; host or cells: SF9 cells (baculovirus)
T1 sequence (P51449 269-508 limits assumed): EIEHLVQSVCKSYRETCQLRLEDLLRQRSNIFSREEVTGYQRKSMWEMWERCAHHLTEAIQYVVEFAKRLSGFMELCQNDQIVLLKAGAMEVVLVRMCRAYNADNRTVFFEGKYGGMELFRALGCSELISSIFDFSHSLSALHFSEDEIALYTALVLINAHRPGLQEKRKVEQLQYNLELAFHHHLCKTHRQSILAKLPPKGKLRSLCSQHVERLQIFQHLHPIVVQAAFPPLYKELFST
The experiment in a line: RORγ-Ligand Binding Domain (LBD) TR-FRET Assay.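 On TR-FRET Assay Max Response: 665/615 nm ratio relative to signal without ursolic acid or compound set at 100.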 In kind it is biochemical. Here is the method:
Assay procedures and results are described below.
HIS-tagged RORγ-LBD protein was expressed in SF9 cells using a baculovirus expression system. The lysate was diluted in assay buffer (50 mM Tris pH 7.0, 50 mM KCl, 1 mM EDTA, 0.1 mM DTT, 0.01% BSA) to obtain RORγ-LBD final concentration of ˜3 nM in a 384-well assay plate (need to titrate for each batch of protein).
A stock of biotinylated-LXXLL peptide from coactivator SRC1 (Biotin-[…]) was prepared in assay buffer and added to each well (200 nM final concentration). […] RORγ antagonist ursolic acid was also included at a final concentration of 2 μM. Compounds were diluted in DMSO and further diluted in assay buffer with a final DMSO concentration at 1%.
For orientation: Time-resolved FRET reads energy transfer from a long-lived donor to a nearby acceptor.

The text below walks through data of patent US10611740B2, “Aryl dihydro-2H-benzo[b][1,4]oxazine sulfonamide and related compounds for use as agonists of RORγ and the treatment of disease” (Lycera Corporation, priority 2015, dated 2020).

The term EC50 denotes the concentration that produces a half-maximal response. Read a high EC50 as a less potent agent. For `CC(C)(C[C@H]1CN(S(=O)(=O)c2cccc(C(F)(F)F)c2)c2cc(-c3cccc(OC(F)F)n3)ccc2O1)C(=O)O` [Compound 32AM, (S)-3-(6-(6-(difluoromethoxy)-pyridin-2-yl)-4-((3-(trifluoro-methyl)phenyl)sulfonyl)-3,4-dihydro-2H-benzo[b][1,4]oxazin-2-yl)-2,2-dimethylpropanoic acid], the EC50 is below 500 nM and the “TR-FRET Assay Max Response” value is “* (The symbol “*” indicates a value in the range of 25 to 90)”.

On to `O=C(O)[C@H]1C[C@@H]([C@H]2CN(S(=O)(=O)c3cccc(C(F)(F)F)c3)c3cc(-c4cccc(C(F)(F)F)n4)ccc3O2)C1` [Compound 71, (1R,3s)-3-((S)-4-((3-(trifluoromethyl)phenyl)sulfonyl)-6-(6-(trifluoromethyl)pyridin-2-yl)-3,4-dihydro-2H-benzo[b][1,4]oxazin-2-yl)cyclobutane-1-carboxylic acid], for which the half-maximal effective concentration (EC50) was below 500 nM and the “TR-FRET Assay Max Response” value is reported as “*** (The symbol “***” indicates a value in the range of greater than 150 to 200)”.

In the case of `O=C(O)CC[C@H]1CN(S(=O)(=O)c2cccc(C(F)(F)F)c2)c2cc(-c3cccc(-c4ccccc4)n3)ccc2O1` [Compound 4AI, (S)-3-(6-(6-phenylpyridin-2-yl)-4-((3-(trifluoromethyl)-phenyl)sulfonyl)-3,4-dihydro-2H-benzo[b][1,4]oxazin-2-yl)propanoic acid], the EC50 is below 500 nM and the “TR-FRET Assay Max Response” value is reported as “** (The symbol “**” indicates a value in the range of greater than 90 to 150)”.

Regarding `O=C(O)CC[C@H]1CN(S(=O)(=O)c2cccc(C(F)(F)F)c2)c2cc(-c3cc(F)cc(OC(F)F)c3)cc(F)c2O1` [Compound 22M, (S)-3-(6-(3-(difluoromethoxy)-5-fluorophenyl)-8-fluoro-4-((3-(trifluoromethyl)phenyl)sulfonyl)-3,4-dihydro-2H-benzo[b][1,4]-oxazin-2-yl)propanoic acid], the EC50 was below 500 nM and the “TR-FRET Assay Max Response” value is “*** (The symbol “***” indicates a value in the range of greater than 150 to 200)”.

With `C[C@H](C[C@H]1CN(S(=O)(=O)c2cccc(C(F)(F)F)c2)c2cc(-c3cc(F)cc(OC(F)F)c3)ccc2O1)C(=O)O` [Compound 46O, (R)-3-((S)-6-(3-(difluoro-methoxy)-5-fluorophenyl)-4-((3-(trifluoromethyl)phenyl)sulfonyl)-3,4-dihydro-2H-benzo[b][1,4]-oxazin-2-yl)-2-methylpropanoic acid], the EC50 is below 500 nM and the “TR-FRET Assay Max Response” value was “*** (The symbol “***” indicates a value in the range of greater than 150 to 200)”. The corresponding values for `O=C(NCC[C@H]1CN(S(=O)(=O)c2cccc(C(F)(F)F)c2)c2cc(-c3cc(F)ccc3F)ccc2O1)NC[C@H](O)C(=O)O` [Compound 23Z, (S)-3-(3-(2-((S)-6-(2,5-difluorophenyl)-4-((3-(trifluoro-methyl)phenyl)sulfonyl)-3,4-dihydro-2H-benzo[b][1,4]oxazin-2-yl)ethyl)ureido)-2-hydroxypropanoic acid] are below 500 nM and “**** (The symbol “****” indicates a value greater than 200)”.

Take `Cn1cc(C(=O)NC[C@H]2CN(S(=O)(=O)c3cccc(C(F)(F)F)c3)c3cc(-c4cc(F)cc(OC(F)F)c4)ccc3O2)c(C(F)(F)F)n1` [Compound 30CZ, (S)-N-((6-(3-(difluoromethoxy)-5-fluorophenyl)-4-((3-(trifluoro-methyl)phenyl)sulfonyl)-3,4-dihydro-2H-benzo[b][1,4]-oxazin-2-yl)methyl)-1-methyl-3-(trifluoromethyl)-1H-pyrazole-4-carboxamide]: the EC50 was below 500 nM and the “TR-FRET Assay Max Response” value is “*** (The symbol “***” indicates a value in the range of greater than 150 to 200)”. Regarding `C[C@@H](C[C@H]1CN(S(=O)(=O)c2cccc(C(F)(F)F)c2)c2cc(-c3cccc(C(F)(F)F)c3)ccc2O1)C(=O)O` [Compound 46L, (S)-2-methyl-3-((S)-6-(3-(trifluoromethyl)phenyl)-4-((3-(trifluoromethyl)phenyl)sulfonyl)-3,4-dihydro-2H-benzo[b][1,4]-oxazin-2-yl)propanoic acid], the EC50 is below 500 nM. Turning to `C[C@@H](C[C@H]1CN(S(=O)(=O)c2cccc(C(F)(F)F)c2)c2cc(-c3cc(F)cc(OC(F)F)c3)ccc2O1)C(=O)O` [Compound 46P, (S)-3-((S)-6-(3-(difluoro-methoxy)-5-fluorophenyl)-4-((3-(trifluoromethyl)phenyl)sulfonyl)-3,4-dihydro-2H-benzo[b][1,4]-oxazin-2-yl)-2-methylpropanoic acid], the EC50 is below 500 nM and the “TR-FRET Assay Max Response” value is recorded as “*** (The symbol “***” indicates a value in the range of greater than 150 to 200)”. The corresponding values for `Cc1coc(-c2ccc3c(c2)N(S(=O)(=O)c2cccc(C(F)(F)F)c2)C[C@H](CCC(=O)O)O3)n1` [Compound 25, (S)-3-(6-(4-methyloxazol-2-yl)-4-((3-(trifluoromethyl)phenyl)sulfonyl)-3,4-dihydro-2H-benzo[b][1,4]oxazin-2-yl)propanoic acid] are 500 to 5000 nM and “** (The symbol “**” indicates a value in the range of greater than 90 to 150)”. On the same counts, the results for `CC(C)(C[C@@H]1CN(S(=O)(=O)c2cccc(C(F)(F)F)c2)c2cc(-c3cc(F)ccc3F)ccc2O1)NS(C)(=O)=O` [Compound 30DF, (R)-N-(1-(6-(2,5-difluoro-phenyl)-4-((3-(trifluoromethyl)-phenyl)sulfonyl)-3,4-dihydro-2H-benzo[b][1,4]oxazin-2-yl)-2-methylpropan-2-yl)methane-sulfonamide] are below 500 nM and “*** (The symbol “***” indicates a value in the range of greater than 150 to 200)”. On the same counts, the results for `CN(C)c1nccc(-c2ccc3c(c2)N(S(=O)(=O)c2cccc(C(F)(F)F)c2)C[C@H](CCC(=O)O)O3)n1` [Compound 4AV, (S)-3-(6-(2-(dimethylamino)-pyrimidin-4-yl)-4-((3-(trifluoromethyl)phenyl)-sulfonyl)-3,4-dihydro-2H-benzo[b][1,4]oxazin-2-yl)propanoic acid] are 500 to 5000 nM and “*** (The symbol “***” indicates a value in the range of greater than 150 to 200)”. Consider `C[C@@H](C[C@H]1CN(S(=O)(=O)c2cccc(C(F)(F)F)c2)c2cc(-c3cc(Cl)cc(OC(F)F)c3)ccc2O1)C(=O)O` [Compound 46R, (S)-3-((S)-6-(3-chloro-5-(difluoromethoxy)phenyl)-4-((3-(trifluoromethyl)phenyl)sulfonyl)-3,4-dihydro-2H-benzo[b][1,4]-oxazin-2-yl)-2-methylpropanoic acid], for which the EC50 is below 500 nM and the “TR-FRET Assay Max Response” value was “*** (The symbol “***” indicates a value in the range of greater than 150 to 200)”.

Regarding `O=C(O)[C@H]1C[C@@H]([C@H]2CN(S(=O)(=O)c3cccc(C(F)(F)F)c3)c3cc(-c4cc(F)ccc4F)ccc3O2)C1` [Compound 60H, (1R,3s)-3-((S)-6-(2,5-difluoro-phenyl)-4-((3-(trifluoromethyl)-phenyl)sulfonyl)-3,4-dihydro-2H-benzo[b][1,4]oxazin-2-yl)cyclobutane-1-carboxylic acid], the EC50 is below 500 nM and the “TR-FRET Assay Max Response” value is reported as “** (The symbol “**” indicates a value in the range of greater than 90 to 150)”.
